From ChEMBL document CHEMBL1146172, “Identification of novel, orally bioavailable spirohydantoin CGRP receptor antagonists” (Bioorg Med Chem Lett, 2006)

Test system: not listed separately
Assay: Bioavailability in rat at 10 mg/kg, po
Type: ADME, organism-based
Conditions: in vivo

bioavailability [%]	Structure (SMILES)
20	CN1C(=O)NC(=O)[C@]12Cc1ccc(NC(=O)Cn3c(=O)n(-c4nccs4)c4ccccc43)cc1C2
2	CN1C(=O)NC(=O)[C@]12Cc1ccc(NC(=O)Cn3c(=O)n(-c4ncccn4)c4ccccc43)cc1C2

Target: Calcitonin gene-related peptide type 1 receptor (Homo sapiens, UniProt O60894+Q16602)
Assay: Displacement of [125I]hCGRP from human cloned CGRP receptor expressed in HEK293 cells
Type: cell-based
Conditions: not given

Sequence of Calcitonin gene-related peptide type 1 receptor (Homo sapiens, UniProt O60894+Q16602) (Q16602 whole entry, one chain of several): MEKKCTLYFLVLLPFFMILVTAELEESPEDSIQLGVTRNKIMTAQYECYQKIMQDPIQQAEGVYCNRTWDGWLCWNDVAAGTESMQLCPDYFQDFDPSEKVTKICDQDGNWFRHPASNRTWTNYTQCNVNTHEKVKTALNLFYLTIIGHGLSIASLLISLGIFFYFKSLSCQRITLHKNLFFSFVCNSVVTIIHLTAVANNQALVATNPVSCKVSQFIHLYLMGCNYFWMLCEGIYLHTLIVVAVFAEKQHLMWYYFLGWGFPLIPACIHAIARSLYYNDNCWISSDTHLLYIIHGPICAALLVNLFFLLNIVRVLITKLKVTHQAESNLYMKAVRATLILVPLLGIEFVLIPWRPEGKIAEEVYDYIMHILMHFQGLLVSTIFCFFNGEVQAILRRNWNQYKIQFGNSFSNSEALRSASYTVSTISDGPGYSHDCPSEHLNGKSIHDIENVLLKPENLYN

Structure (SMILES)	Ki [nM]
CN1C(=O)NC(=O)[C@]12Cc1ccc(NC(=O)Cn3c(=O)oc4ccccc43)cc1C2	48
O=C(Cn1c(=O)oc2ccccc21)Nc1ccc2c(c1)CC1(C2)NC(=O)NC1=O (stereo not drawn)	309
CN1C(=O)NC(=O)C12Cc1ccc(NC(=O)Cn3c(=O)oc4ccccc43)cc1C2 (stereo not drawn)	103
CN1C(=O)NC(=O)[C@]12Cc1ccc(NC(=O)Cn3c(=O)n(-c4nccs4)c4ccccc43)cc1C2	8.7

More lines, in order of falling Ki, values ahead:

Ki [nM]	Structure (SMILES)
1050	CN1C(=O)NC(=O)[C@@]12Cc1ccc(NC(=O)Cn3c(=O)oc4ccccc43)cc1C2
607	O=C(Cn1c(=O)oc2ccccc21)Nc1ccc2c(c1)CCC1(C2)NC(=O)NC1=O (stereo not drawn)
280	O=C(Cn1c(=O)[nH]c2ccccc21)Nc1ccc2c(c1)CC1(C2)NC(=O)NC1=O (stereo not drawn)
87	O=C(Cn1c(=O)n(-c2ccccc2)c2ccccc21)Nc1ccc2c(c1)CC1(C2)NC(=O)NC1=O (stereo not drawn)
78	Cn1c(=O)n(CC(=O)Nc2ccc3c(c2)CC2(C3)NC(=O)NC2=O)c2ccccc21 (stereo not drawn)
25	CN1C(=O)NC(=O)[C@]12Cc1ccc(NC(=O)Cn3c(=O)n(-c4ncccn4)c4ccccc43)cc1C2

Target: Calcitonin gene-related peptide type 1 receptor (Homo sapiens, UniProt Q16602)
Assay: Inhibition of CGRP-induced cAMP production in E10 cells
Type: functional, cell-based, Mus musculus
Conditions: not given

Sequence of Calcitonin gene-related peptide type 1 receptor (Homo sapiens, UniProt Q16602) (Q16602 whole entry): as the sequence (Q16602 whole entry, one chain of several) above

Structure (SMILES)	IC50 [nM]
CN1C(=O)NC(=O)[C@]12Cc1ccc(NC(=O)Cn3c(=O)oc4ccccc43)cc1C2	350
O=C(Cn1c(=O)oc2ccccc21)Nc1ccc2c(c1)CC1(C2)NC(=O)NC1=O (stereo not drawn)	2900
CN1C(=O)NC(=O)C12Cc1ccc(NC(=O)Cn3c(=O)oc4ccccc43)cc1C2 (stereo not drawn)	1400
CN1C(=O)NC(=O)[C@]12Cc1ccc(NC(=O)Cn3c(=O)n(-c4nccs4)c4ccccc43)cc1C2	24

The remaining lines, values ahead:

IC50 [nM]	Structure (SMILES)
3300	O=C(Cn1c(=O)oc2ccccc21)Nc1ccc2c(c1)CCC1(C2)NC(=O)NC1=O (stereo not drawn)
690	O=C(Cn1c(=O)[nH]c2ccccc21)Nc1ccc2c(c1)CC1(C2)NC(=O)NC1=O (stereo not drawn)
430	O=C(Cn1c(=O)n(-c2ccccc2)c2ccccc21)Nc1ccc2c(c1)CC1(C2)NC(=O)NC1=O (stereo not drawn)
530	Cn1c(=O)n(CC(=O)Nc2ccc3c(c2)CC2(C3)NC(=O)NC2=O)c2ccccc21 (stereo not drawn)
110	CN1C(=O)NC(=O)[C@]12Cc1ccc(NC(=O)Cn3c(=O)n(-c4ncccn4)c4ccccc43)cc1C2

Test system: not listed separately
Assay: Half life in rat at 2 mpk, iv
Type: ADME, organism-based
Conditions: in vivo, 2 mg/kg

half-life [h]	Structure (SMILES)
2	CN1C(=O)NC(=O)[C@]12Cc1ccc(NC(=O)Cn3c(=O)n(-c4nccs4)c4ccccc43)cc1C2
1.1	CN1C(=O)NC(=O)[C@]12Cc1ccc(NC(=O)Cn3c(=O)n(-c4ncccn4)c4ccccc43)cc1C2

Test system: not listed separately
Assay: Solubility at pH 7.4
Type: physicochemical
Conditions: buffer

solubility [µg/mL]	Structure (SMILES)
< 1	CN1C(=O)NC(=O)[C@]12Cc1ccc(NC(=O)Cn3c(=O)n(-c4nccs4)c4ccccc43)cc1C2

Test system: not listed separately
Assay: Clearance in rat at 2 mpk, iv
Conditions: in vivo, 2 mg/kg

clearance [mL/min/kg]	Structure (SMILES)
3.7	CN1C(=O)NC(=O)[C@]12Cc1ccc(NC(=O)Cn3c(=O)n(-c4nccs4)c4ccccc43)cc1C2
23	CN1C(=O)NC(=O)[C@]12Cc1ccc(NC(=O)Cn3c(=O)n(-c4ncccn4)c4ccccc43)cc1C2

Test system: Rattus norvegicus
Assay: Volume of distribution in rat at 2 mpk, iv
Conditions: in vivo, 2 mg/kg

Vdss [L/kg]	Structure (SMILES)
0.54	CN1C(=O)NC(=O)[C@]12Cc1ccc(NC(=O)Cn3c(=O)n(-c4nccs4)c4ccccc43)cc1C2
0.5	CN1C(=O)NC(=O)[C@]12Cc1ccc(NC(=O)Cn3c(=O)n(-c4ncccn4)c4ccccc43)cc1C2
